# Read-outs that look alike come from different tables or passages of the source.
# Key:
# [1] = target: T1, Human M1 PK (Homo sapiens, UniProt P14618); assay: Human PK selectivity, LDH-coupled enzyme assay; type: biochemical; conditions: read-out: % Inhibition Human M1
# T1 construct: His tag; made in house; host or cells: E. coli BL-21 (DE3); construct a gift of Dr. L. Cantley
# Description: (§1) Genomic DNA of MRSA strain Sanger 252 extracted using DNeasy Tissue Kit™ (Qiagen™) was used as a template to generate the His-tagged MRSA PK. Human cDNA from MCF-7 breast cancer cell line (courtesy of Dr. J Wong, BC Cancer Research Center (Vancouver, Canada) was used as a template to generate the full-length human M2 PK enzyme. The following primer sets were used creating appropriate restriction sites (NdeI and XhoI sites underlined): For cloning of MRSA PK: M27F 5′-[…]-3′ and M27R 5′-[…]-3′, for cloning of human M2 PK isoform: hM2F 5′-[…]-3′ and hM2R 5′-[…]-3′. The resulting PCR fragments for each construct were cloned into the NdeI and XhoI unique sites of the bacterial expression vector pET-28a (+) (Novagen™). […] The sequence and the correct reading frame of all constructs were verified by sequencing. Human M1, R and L PK constructs in pET-28-a(+) vectors (courtesy of Dr. L. Cantley, Harvard Medical, School (Boston, USA)) were used to generate relevant recombinant His-tagged human PK isoforms.
# (§2) MRSA and human constructs in pET-28a(+) were used to express relevant recombinant PK proteins in E. coli BL-21 (DE3). The proteins were expressed and purified using Ni-NTA agarose (Qiagen™) according to the manufacturer's protocol. Briefly, cells were grown to an absorbance of 0.4-0.5 at 600 nm in 2×YT medium, then induced with 0.1 mM IPTG for 3 h at 20° C. Cells were lysed by sonication on ice (3×10-s bursts with a 30-s recovery between bursts) in lysis buffer (0.2 mg/ml lysozyme, 50 mM Tris pH 7.5, 10 mM MgCl2, 200 mM NaCl, 100 mM KCl, 10% glycerol, 10 mM imidazole, 0.5% NP-40 and 1 mM DTT containing Complete™ protease inhibitor). Cell lysates were cleared by centrifugation (18,000×g in a Beckman™ JA-20 rotor) for 20 min at 4° C. and PK isoforms were purified by batch binding to Ni-NTA resin. The resins were then packed in columns (1×2 cm) and washed with 400 column volumes lysis buffer containing 30 mM imidazole. His-tagged PK isoforms were eluted with the same buffer containing 300 mM imidazole. The proteins were dialyzed overnight at 4° C. against 2000 volumes of ice-cold 30 mM Tris pH 7.5, 25 mM KCl, 5 mM MgCl2, 10% glycerol and 1 mM DTT to remove imidazole. All purification steps were done at 4° C.; enzymes were flash-frozen and stored at −70° C. Enzymatic activity of frozen protein preparations was stable for at least 10 months and up to 5 freeze/thaw cycles. Purity and physical integrity of proteins were assessed using SDS-polyacrylamide gel electrophoresis (SDS-PAGE) followed by coomassie blue staining. Protein concentration was estimated by Bradford assay (Bio-Rad Protein Assay™) using bovine serum albumin as a standard.
# (§3) Candidate MRSA PK inhibitors were assayed for their ability to inhibit enzymatic activities of MRSA and human PKs. PK activity was determined using a continuous assay coupled to lactate dehydrogenase (LDH) in which the change in absorbance at 340 nm owing to oxidation of NADH was measured using a Benchmark Plus™ microplate spectrophotometer (Bio-Rad Laboratories, Hercules, Calif.). […] Reactions were initiated by the addition of 15 nM of one of the PK enzymes. PK activity proportional to the rate of change at 340 nm was expressed as specific activity (μmol/min/mg), which is defined as the amount of PK that catalyzes the formation of one micromole of either product per minute. Inhibitors were dissolved in DMSO with the final concentration of the solvent never exceeding 1% of the assay volume. IC50 values were calculated by curve fitting on a four-parameter dose-response model with variable slope using Graphpad Prism 5.0™ (GraphPad™ Software Inc., La Jolla, Calif.). In all studies, less than 10% of total PEP was exhausted during the reaction. Reactions were performed at 30° C. for up to 5 min. All values determined represent at least two measurements, in triplicate (Tables 1-6) or duplicate unless mentioned otherwise. […]
# [2] = target: T2, Human R PK (Homo sapiens, UniProt P30613); assay: Human PK selectivity, LDH-coupled enzyme assay; type: biochemical; conditions: read-out: % Inhibition Human R
# T2 construct: His tag; made in house; host or cells: E. coli BL-21 (DE3); construct a gift of Dr. L. Cantley
# Description: as §1, §2, §3
# [3] = target: T3, Human M2 PK (Homo sapiens, UniProt P14618); assay: Human PK selectivity, LDH-coupled enzyme assay; type: biochemical; conditions: read-out: % Inhibition Human M2
# T3 construct: used as a template to generate the full-length human M2 PK enzyme; His tag (pET-28a(+) vector) (N); made in house; host or cells: E. coli BL-21 (DE3)
# Description: as §1, §2, §3
# [4] = target: T4, Human L PK (Homo sapiens, UniProt P30613); assay: Human PK selectivity, LDH-coupled enzyme assay; type: biochemical; conditions: read-out: % Inhibition Human L
# T4 construct: His tag; made in house; host or cells: E. coli BL-21 (DE3); construct a gift of Dr. L. Cantley
# Description: as §1, §2, §3
# [5] = In vivo tolerability (MTD) study
# Experimental: (§4) The MTD and pharmacokinetic profiles of compounds 123 and 178 administered IV or PO were determined in female CD-1 mice (6-8 weeks of age). Compounds were dissolved in 3% DMSO/6% Solutol® HS 15/10 mM PB (pH7.4) for IV administration and in 3% DMSO/6% Solutol® HS 15/water for oral administration.
# For tolerability studies, one animal from each group was administered the lowest dose first and then observed for 60 min. […] On the following day, the next higher dose was administered using the same procedure outlined above. Animals were euthanized 24 hours after the last injection, a cardiac puncture blood sample was collected and processed for plasma. Thigh muscle was collected and a necropsy performed.
# [6] = Pharmacokinetic study; type: in vivo, female CD-1 mice; conditions: female, CD-1, mouse, plasma
# Experimental: as §4
# For the pharmacokinetic study, animals were injected with their respective compound at the dose indicated in 11. At their respective time point, animals were deeply anesthetized with isoflurane and then asphyxiated with CO2. Cardiac puncture blood was collected immediately following death, and the blood processed to generate plasma.
# T1 sequence (P14618 1-531 isoform P14618-2): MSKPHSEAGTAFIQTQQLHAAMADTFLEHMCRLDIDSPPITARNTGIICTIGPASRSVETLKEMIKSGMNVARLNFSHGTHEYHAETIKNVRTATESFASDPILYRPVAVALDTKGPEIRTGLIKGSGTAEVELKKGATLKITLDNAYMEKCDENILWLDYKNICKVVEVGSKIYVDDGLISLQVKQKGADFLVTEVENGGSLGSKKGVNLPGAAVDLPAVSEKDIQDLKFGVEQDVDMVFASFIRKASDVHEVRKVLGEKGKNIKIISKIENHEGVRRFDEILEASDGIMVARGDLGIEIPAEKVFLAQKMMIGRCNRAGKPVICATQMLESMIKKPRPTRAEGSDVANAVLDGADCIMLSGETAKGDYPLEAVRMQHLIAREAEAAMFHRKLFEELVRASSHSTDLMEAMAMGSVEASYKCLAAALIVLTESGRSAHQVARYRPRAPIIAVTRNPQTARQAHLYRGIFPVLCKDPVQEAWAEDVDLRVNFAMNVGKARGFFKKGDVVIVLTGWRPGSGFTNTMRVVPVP
# T3 sequence (P14618 whole entry): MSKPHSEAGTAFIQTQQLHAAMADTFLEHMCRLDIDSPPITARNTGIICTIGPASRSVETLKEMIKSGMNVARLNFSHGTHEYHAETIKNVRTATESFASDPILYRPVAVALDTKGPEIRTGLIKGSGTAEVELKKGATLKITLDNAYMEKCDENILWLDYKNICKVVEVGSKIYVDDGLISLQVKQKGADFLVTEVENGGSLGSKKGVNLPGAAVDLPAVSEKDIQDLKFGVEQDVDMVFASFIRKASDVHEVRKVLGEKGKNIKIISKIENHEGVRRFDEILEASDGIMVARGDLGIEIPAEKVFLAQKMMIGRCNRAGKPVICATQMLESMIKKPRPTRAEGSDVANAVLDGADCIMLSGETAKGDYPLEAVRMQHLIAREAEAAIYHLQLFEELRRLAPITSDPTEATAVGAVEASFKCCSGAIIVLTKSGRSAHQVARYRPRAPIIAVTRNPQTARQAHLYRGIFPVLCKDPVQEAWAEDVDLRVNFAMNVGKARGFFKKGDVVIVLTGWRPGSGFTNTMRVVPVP
# T2 sequence (P30613 whole entry): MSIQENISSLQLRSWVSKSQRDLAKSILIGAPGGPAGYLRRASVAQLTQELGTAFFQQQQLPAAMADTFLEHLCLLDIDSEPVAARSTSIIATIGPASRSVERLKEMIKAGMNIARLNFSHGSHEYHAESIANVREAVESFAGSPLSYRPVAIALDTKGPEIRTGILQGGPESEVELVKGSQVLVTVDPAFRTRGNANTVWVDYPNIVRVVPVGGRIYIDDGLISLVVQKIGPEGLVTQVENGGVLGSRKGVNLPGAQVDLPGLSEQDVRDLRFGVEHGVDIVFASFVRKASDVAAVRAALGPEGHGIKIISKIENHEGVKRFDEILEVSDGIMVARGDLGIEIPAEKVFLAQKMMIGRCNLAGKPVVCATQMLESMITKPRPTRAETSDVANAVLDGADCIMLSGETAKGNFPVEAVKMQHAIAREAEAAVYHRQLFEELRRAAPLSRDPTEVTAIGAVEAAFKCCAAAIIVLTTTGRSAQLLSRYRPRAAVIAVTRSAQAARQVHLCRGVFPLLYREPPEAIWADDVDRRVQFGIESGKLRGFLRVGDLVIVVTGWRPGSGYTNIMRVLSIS
# T4 sequence (P30613 1-543 isoform P30613-2): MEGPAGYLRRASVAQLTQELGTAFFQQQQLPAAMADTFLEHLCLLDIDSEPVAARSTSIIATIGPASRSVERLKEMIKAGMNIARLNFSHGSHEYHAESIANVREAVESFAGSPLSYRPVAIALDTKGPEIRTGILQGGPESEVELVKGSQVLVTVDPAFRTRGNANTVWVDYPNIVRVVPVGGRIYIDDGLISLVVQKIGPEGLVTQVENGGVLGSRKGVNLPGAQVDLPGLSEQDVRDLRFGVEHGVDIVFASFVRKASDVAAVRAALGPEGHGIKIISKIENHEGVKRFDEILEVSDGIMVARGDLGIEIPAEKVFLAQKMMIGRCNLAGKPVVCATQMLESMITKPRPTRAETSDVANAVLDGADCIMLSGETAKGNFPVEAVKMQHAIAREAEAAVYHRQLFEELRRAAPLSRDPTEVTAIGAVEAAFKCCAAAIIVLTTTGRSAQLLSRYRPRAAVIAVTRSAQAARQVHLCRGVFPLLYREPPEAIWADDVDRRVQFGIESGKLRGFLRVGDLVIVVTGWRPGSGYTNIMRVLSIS
structure (smiles),measurement,setting,value
"Brc1ccc2cc(/C=C/c3cc4ccccc4[nH]3)[nH]c2c1 [Compound 27a, (E)-2-(2-(1H-indol-2-yl)vinyl)-6-bromo-1H-indole]",inhibition at 10 µM,[1]; at 10 μM,16.1%
same,inhibition at 10 µM,[2]; at 10 μM,23.8%
same,inhibition at 10 µM,[3]; at 10 μM,-0.9%
same,inhibition at 10 µM,[4]; at 10 μM,12.9%
"Brc1ccc2[nH]c(-c3cc4cc(Br)ccc4[nH]3)cc2c1 [Compound 10i, 5,5′-Bibromo-1H,1′H-2,2′-biindole]",inhibition at 10 µM,[1]; at 10 μM,12.3%
same,inhibition at 10 µM,[2]; at 10 μM,24.4%
same,inhibition at 10 µM,[3]; at 10 μM,0.5%
same,inhibition at 10 µM,[4]; at 10 μM,9.8%
same,melting point,,304 to 306 °C
"Brc1ccc2[nH]c(C#Cc3cc4ccc(Br)cc4[nH]3)cc2c1 [Compound 25c, 6-Bromo-2-((5-bromo-1H-indol-2-yl)ethynyl)-1H-indole]",inhibition at 10 µM,[1]; at 10 μM,19.5%
same,inhibition at 10 µM,[2]; at 10 μM,27.8%
same,inhibition at 10 µM,[3]; at 10 μM,8.7%
same,inhibition at 10 µM,[4]; at 10 μM,14%
same,melting point,,236 to 237 °C
"Brc1ccc2[nH]c(-c3cc4ccc(Br)cc4[nH]3)cc2c1 [Compound 10c, 5,6-Bibromo-1H,1′H-2,2′-biiindole]",inhibition at 10 µM,[1]; at 10 μM,6.9%
same,inhibition at 10 µM,[2]; at 10 μM,13.6%
same,inhibition at 10 µM,[3]; at 10 μM,8.7%
same,inhibition at 10 µM,[4]; at 10 μM,6.1%
same,melting point,,270 to 272 °C
"COc1cc(-c2cc3ccccc3[nH]2)ccc1-c1cc2ccc(Br)cc2[nH]1 [Compound 33e, 2-(4-(1H-indol-2-yl)-2-methoxyphenyl)-6-bromo-1H-indole]",inhibition at 10 µM,[1]; at 10 μM,7.3%
same,inhibition at 10 µM,[2]; at 10 μM,13.5%
same,inhibition at 10 µM,[3]; at 10 μM,14.6%
same,inhibition at 10 µM,[4]; at 10 μM,4.3%
"Brc1ccc2cc(CCc3cc4ccc(Br)cc4[nH]3)[nH]c2c1 [Compound 28a, 1,2-bis(6-bromo-1H-indol-2-yl)ethane]",inhibition at 10 µM,[1]; at 10 μM,9.9%
same,inhibition at 10 µM,[2]; at 10 μM,24.1%
same,inhibition at 10 µM,[3]; at 10 μM,1.3%
same,inhibition at 10 µM,[4]; at 10 μM,9.7%
"Cn1c(-c2cc3ccc(Br)cc3[nH]2)cc2cc(Br)ccc21 [Compound 12a, 5,6′-Dibromo-1-methyl-1H,1′H-2,2′-biindole]",inhibition at 10 µM,[1]; at 10 μM,13.9%
same,inhibition at 10 µM,[2]; at 10 μM,2.7%
same,inhibition at 10 µM,[3]; at 10 μM,9.1%
same,inhibition at 10 µM,[4]; at 10 μM,2.8%
same,melting point,,180 to 182 °C
"Brc1cc2cc(-c3cc4cc(Br)c(Br)cc4[nH]3)[nH]c2cc1Br [Compound 10l, 5,5′,6,6′-Tetrabromo-1H,1′H-2,2′-biindole]",inhibition at 10 µM,[1],11.1%
same,inhibition at 10 µM,[2],20.7%
same,inhibition at 10 µM,[3],2.3%
same,inhibition at 10 µM,[4],8.2%
"Brc1ccc2c(c1)cc(-c1cc3ccc(Br)cc3[nH]1)n2CCN1CCOCC1 [Compound 20b, 4-(2-(5,6′-dibromo-1H,1′H-[2,2′-biindol]-1-yl)ethyl)morpholine]",inhibition at 10 µM,[1]; at 10 μM,13.1%
same,inhibition at 10 µM,[2]; at 10 μM,50.7%
same,inhibition at 10 µM,[3]; at 10 μM,3.5%
same,inhibition at 10 µM,[4]; at 10 μM,32.1%
"O=C(c1c(-c2cc3cc(Cl)ccc3[nH]2)[nH]c2cc(Br)ccc12)C(F)(F)F [Compound 178, 1-(6-bromo-5′-chloro-1H,1′H-[2,2′-biindol]-3-yl)-2,2,2-trifluoroethan-1-one]",Tolerability,[5]; IV doses of 30 mg/kg,well tolerated
same,Tolerability,[5]; PO doses of 10 mg/kg,well tolerated
same,bioavailability,"[6]; 10 mg/kg, PO administration, read-out: bioavailability (% F)",21%
same,Cmax,[6]; IV administration at 3 mg/kg,19000 ng/mL
same,half-life,[6]; IV administration at 3 mg/kg,2.27 h
"Brc1ccc2cc(-c3nc4ccccc4s3)[nH]c2c1 [Compound 22a, 2-(6-Bromo-1H-indol-2-yl)benzo[d]thiazole]",inhibition at 10 µM,[1]; at 10 μM,12.4%
same,inhibition at 10 µM,[2]; at 10 μM,21.6%
same,inhibition at 10 µM,[3]; at 10 μM,3%
same,inhibition at 10 µM,[4]; at 10 μM,7.8%
"Brc1ccc2cc(-c3cc4ccccc4o3)[nH]c2c1 [Compound 22b, 2-(Benzofuran-2-yl)-6-bromo-1H-indole]",inhibition at 10 µM,[1]; at 10 μM,5.3%
same,inhibition at 10 µM,[2]; at 10 μM,-5.5%
same,inhibition at 10 µM,[3]; at 10 μM,0.4%
same,inhibition at 10 µM,[4]; at 10 μM,-6%
same,melting point,,196 to 198 °C
"CN1CCN(CCn2c(-c3cc4ccc(Br)cc4[nH]3)cc3cc(Br)ccc32)CC1 [Compound 20a, 5,6′-Dibromo-1-(2-(4-methylpiperazin-1-yl)ethyl)-1H,1′H-2,2′-biindole]",inhibition at 10 µM,[1]; at 10 μM,3.2%
same,inhibition at 10 µM,[2]; at 10 μM,26.1%
same,inhibition at 10 µM,[3]; at 10 μM,1.7%
same,inhibition at 10 µM,[4]; at 10 μM,16.8%
same,melting point,,140 °C
"OCCn1c(-c2cc3ccc(Br)cc3[nH]2)cc2cc(Br)ccc21 [Compound 17, 2-(5,6′-Dibromo-1H, 1′H-[2,2′-biindol]-1-yl)ethanol]",inhibition at 10 µM,[1]; at 10 μM,14.6%
same,inhibition at 10 µM,[2]; at 10 μM,25.2%
same,inhibition at 10 µM,[3]; at 10 μM,12.1%
same,inhibition at 10 µM,[4]; at 10 μM,6.8%
"Brc1ccc2cc(-c3cc4ccc(Br)cc4[nH]3)[nH]c2c1 [Compound 10b, 6,6′-Dibromo-1H,1′H-2,2′-biindole]",inhibition at 10 µM,[1]; at 10 μM,10.3%
same,inhibition at 10 µM,[2]; at 10 μM,18.3%
same,inhibition at 10 µM,[3]; at 10 μM,0.1%
same,inhibition at 10 µM,[4]; at 10 μM,7.9%
same,melting point,,266 to 267 °C
"Brc1ccc2cc(-c3cc4cc(Br)c(Br)cc4[nH]3)[nH]c2c1 [Compound 10k, 5,6,6′-Tribromo-1H,1′H-2,2′-biindole]",inhibition at 10 µM,[1]; at 10 μM,16.1%
same,inhibition at 10 µM,[2]; at 10 μM,41%
same,inhibition at 10 µM,[3]; at 10 μM,20.8%
same,inhibition at 10 µM,[4]; at 10 μM,26.8%
